According to publication PMC3794980, “Identification of Conserved and HLA Promiscuous DENV3 T-Cell Epitopes” (PLoS Neglected Tropical Diseases, 2013):
Like-named read-outs stand apart in the source and are kept apart here.

Columns and labels:
Assay in all cases: biochemical
Assay type in all cases: binding
[1] = molecular target: DRB1*0401 (Homo sapiens, UniProt P01903+P01911, A100K/A169T/F76Y/I96L/K127E/L162R/M171V/N62H/P40V/Q125Y/R42H/S133A/S149N/S66Y/V115G/V209L/W38E)
[2] = molecular target: DRB4*0101 (Homo sapiens, UniProt P01903+P13762, G164S)
[3] = molecular target: DRB1*1101 (Homo sapiens, UniProt P01903+P01911, A100R/A169T/A87E/I96F/K41T/L162R/M171V/P40S/Q125H/Q178H/Q39Y/Q99D/R42S/S66Y/T262R/V115G/W38E)
[4] = molecular target: DRB1*0405 (Homo sapiens, UniProt P01903+P01911, A100R/A169T/D86S/F76Y/I96L/K127E/L162R/M171V/N62H/P40V/Q125Y/R42H/S133A/S149N/S66Y/V115G/V209L/W38E)
[5] = molecular target: DRB1*0701 (Homo sapiens, UniProt P01903+P01911, A100R/A102G/A103Q/D57E/D86V/E43K/F76Y/K127E/L162R/M171V/P40G/Q125H/Q99D/R33Q/R42Y/R54Q/S133A/S66F/T210M/V115G/Y107V/Y59L/Y89S)
[6] = molecular target: DRB1*0901 (Homo sapiens, UniProt P01903+P01911, A100R/A103E/D57H/D86V/F55Y/F60I/F76Y/I96F/K127E/L162R/M171V/P40D/Q125H/Q99R/R33Q/R42F/S133A/S66N/T210M/V115G/W38K/Y107V/Y59G/Y89S)
[7] = molecular target: DRB3*0101 (Homo sapiens, UniProt P01903+P79483)
[8] = molecular target: DRB1*1302 (Homo sapiens, UniProt P01903+P01911, A100E/A169T/K41T/L162R/M171V/P40S/Q125H/Q178H/Q39Y/Q99D/R42S/S66N/T262R/V115G/W38E/Y61H)
[9] = molecular target: DRB5*0101 (Homo sapiens, UniProt P01903+Q30154)
[10] = molecular target: DRB1*0802 (Homo sapiens, UniProt P01903+P01911, A100R/A103L/A169T/F76Y/H45Y/I96F/K41T/L162R/M171V/P40S/Q125H/Q178H/Q39Y/Q99D/R218S/R42G/S66Y/V115G/W38E)
[11] = molecular target: DRB1*0101 (Homo sapiens, UniProt P01903+P01911, A100R/D57E/F55L/F60I/F76Y/I96L/L162R/M171V/P40L/Q125E/R42F/V115G/Y59C)
[12] = molecular target: DRB1*0301 (Homo sapiens, UniProt P01903+P01911, A100K/A102G/A103R/A169T/F55Y/I96L/K41T/L162R/M171V/P40S/Q125H/Q178H/Q39Y/R42S/S66N/T106N/T262R/W38E/Y61H)
[13] = molecular target: DRB1*0404 (Homo sapiens, UniProt P01903+P01911, A100R/A169T/F76Y/I96L/K127E/L162R/M171V/N62H/P40V/Q125Y/R42H/S133A/S149N/S66Y/V209L/W38E)
[14] = molecular target: DRB1*1501 (Homo sapiens, UniProt P01903+P01911)
[15] = competitive inhibition of radiolabeled standard peptide, '-' distinct from ND, read-out: Binding Affinity (nM) DRB1*0901
[16] = competitive inhibition of radiolabeled standard peptide, '-' distinct from ND, read-out: Binding Affinity (nM) DRB1*1302

DRB1*1302, sequence (P01903 26-254 limits assumed, other chains not shown): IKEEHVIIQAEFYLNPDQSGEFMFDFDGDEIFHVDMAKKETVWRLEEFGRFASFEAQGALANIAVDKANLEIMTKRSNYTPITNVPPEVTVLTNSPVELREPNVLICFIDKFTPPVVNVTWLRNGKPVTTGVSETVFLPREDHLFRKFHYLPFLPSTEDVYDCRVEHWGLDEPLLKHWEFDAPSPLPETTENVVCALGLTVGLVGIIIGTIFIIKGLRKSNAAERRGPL
DRB1*0301, sequence (P01903 26-254, other chains not shown): as the sequence (P01903 26-254 limits assumed, other chains not shown) above
DRB1*1101, sequence (P01903 26-254, other chains not shown): as the sequence (P01903 26-254 limits assumed, other chains not shown) above

| Compound | IC50 [1] [nM] | IC50 [2] [nM] | IC50 [3] [nM] | IC50 [4] [nM] | IC50 [5] [nM] | IC50 [6, 15] [nM] | IC50 [7] [nM] | IC50 [8, 16] [nM] | IC50 [9] [nM] | IC50 [10] [nM] | IC50 [11] [nM] | IC50 [12] [nM] | IC50 [13] [nM] | IC50 [14] [nM] | IC50 [6] [nM] | IC50 [8] [nM] |
| --- | --- | --- | --- | --- | --- | --- | --- | --- | --- | --- | --- | --- | --- | --- | --- | --- |
| CC[C@H](C)[C@H](NC(=O)[C@H](CC(=O)O)NC(=O)[C@@H](N)CC(C)C)C(=O)N[C@@H](CCC(=O)O)C(=O)N[C@@H](CC(C)C)C(=O)N[C@@H](CCC(N)=O)C(=O)N[C@@H](CCCCN)C(=O)N[C@H](C(=O)N[C@@H](CCC(=O)O)C(=O)N[C@@H](C)C(=O)N[C@H](C(=O)N[C@@H](CCC(N)=O)C(=O)N[C@@H](CC(C)C)C(=O)N[C@@H](C)C(=O)N[C@H](C(=O)O)[C@@H](C)O)[C@@H](C)O)[C@@H](C)O [Envelope 41-55] | 349 | 6.5 | 3260 | 583 | 3.1 | 132 | 3330 | 27 | 684 | 5.1 | 2.3 | – | – | – | – | – |
| CC[C@H](C)[C@H](NC(=O)[C@H](CCCCN)NC(=O)CNC(=O)[C@H](CCC(=O)O)NC(=O)[C@@H](NC(=O)[C@H](CS)NC(=O)[C@H](CC(C)C)NC(=O)[C@H](CCCCN)NC(=O)[C@H](CCCNC(=N)N)NC(=O)[C@H](CC(C)C)NC(=O)[C@@H](NC(=O)[C@H](C)NC(=O)[C@H](CC(C)C)NC(=O)[C@H](CCC(N)=O)NC(=O)[C@@H](N)[C@@H](C)O)[C@@H](C)O)[C@@H](C)CC)C(=O)O [Envelope 51-65] | 2140 | 154 | 40 | 6340 | – | 2340 | 8300 | 1080 | 1850 | 130 | – | 2510 | 10100 | 982 | – | – |
| CSCC[C@H](NC(=O)CNC(=O)[C@H](CCCCN)NC(=O)[C@H](CC(C)C)NC(=O)[C@H](CCC(=O)O)NC(=O)[C@H](CC(C)C)NC(=O)[C@H](CCCCN)NC(=O)[C@H](CC(=O)O)NC(=O)[C@H](CCSC)NC(=O)[C@H](CCCCN)NC(=O)[C@H](CC(C)C)NC(=O)[C@H](CCCNC(=N)N)NC(=O)[C@H](CS)NC(=O)[C@H](CCCCN)NC(=O)[C@@H](N)CC(C)C)C(=O)O [Envelope 281-295] | 2910 | – | 3330 | 9740 | 2160 | – | 31 | – | 2500 | 4460 | – | 17 | 13200 | 652 | 7010 | 915 |
| CC[C@H](C)[C@H](NC(=O)[C@H](CC(=O)O)NC(=O)CNC(=O)[C@@H](NC(=O)[C@@H](NC(=O)[C@@H](NC(=O)[C@@H](NC(=O)[C@H](CC(C)C)NC(=O)[C@@H](N)CCCCN)[C@@H](C)O)C(C)C)C(C)C)C(C)C)C(=O)N[C@H](C(=O)NCC(=O)N[C@H](C(=O)N[C@@H](CC(C)C)C(=O)N[C@@H](CCC(=O)O)C(=O)N[C@@H](CCC(N)=O)C(=O)O)C(C)C)[C@@H](C)CC [NS1 85-99] | 88 | 220 | 807 | 1400 | 70 | 42 | 1680 | 483 | 77 | – | – | 533 | 2660 | 21 | – | – |
| CC(C)C[C@H](NC(=O)[C@H](CCCNC(=N)N)NC(=O)[C@H](Cc1c[nH]cn1)NC(=O)[C@H](CC(=O)O)NC(=O)[C@H](CS)NC(=O)[C@H](CC(C)C)NC(=O)[C@H](CCC(N)=O)NC(=O)[C@@H](NC(=O)[C@H](Cc1ccc(O)cc1)NC(=O)[C@@H](NC(=O)[C@H](CCC(=O)O)NC(=O)[C@H](CCCNC(=N)N)NC(=O)[C@H](CC(C)C)NC(=O)[C@H](CCCCN)NC(=O)[C@@H](N)CC(C)C)C(C)C)[C@@H](C)O)C(=O)O [NS1 169-183] | 474 | 878 | 4800 | 277 | 136 | – | 747 | 9960 | 1300 | 2580 | 226 | 2360 | 457 | – | – | – |
| CC[C@H](C)[C@H](NC(=O)[C@H](CC(C)C)NC(=O)[C@H](CCCCN)NC(=O)CN)C(=O)N[C@@H](Cc1c[nH]cn1)C(=O)N[C@@H](CCC(=O)O)C(=O)N[C@@H](Cc1c[nH]c2ccccc12)C(=O)N[C@@H](CS)C(=O)N[C@@H](CS)C(=O)N[C@@H](CCCNC(=N)N)C(=O)N[C@@H](CO)C(=O)N[C@@H](CS)C(=O)N[C@H](C(=O)N[C@@H](CC(C)C)C(=O)N1CCC[C@H]1C(=O)O)[C@@H](C)O [NS1 305-319] | 1770 | 2040 | 4400 | 3500 | 1200 | 11400 | 1240 | 3190 | 6170 | 7200 | 2600 | 841 | 4390 | – | – | – |
| CSCC[C@H](NC(=O)[C@@H](NC(=O)[C@H](CCC(N)=O)NC(=O)[C@H](Cc1ccccc1)NC(=O)[C@H](CC(N)=O)NC(=O)[C@H](CCCCN)NC(=O)[C@@H]1CCCN1C(=O)[C@@H](N)CC(N)=O)[C@@H](C)O)C(=O)N1CCC[C@H]1C(=O)NCC(=O)N[C@H](C(=O)N[C@@H](Cc1ccccc1)C(=O)N[C@@H](CCC(N)=O)C(=O)N[C@H](C(=O)N[C@H](C(=O)O)[C@@H](C)O)[C@@H](C)O)[C@@H](C)O [NS3 105-119] | 5.4 | 843 | 86 | 96 | 2790 | – | 2530 | – | 177 | 175 | 49 | 11600 | 39 | – | 407 | 2390 |
| CC[C@H](C)[C@H](NC(=O)[C@H](CC(C)C)NC(=O)[C@H](CC(N)=O)NC(=O)[C@H](Cc1ccc(O)cc1)NC(=O)[C@H](CC(N)=O)NC(=O)[C@@H]1CCCN1)C(=O)N[C@H](C(=O)N[C@@H](CCSC)C(=O)N[C@@H](CC(=O)O)C(=O)N[C@@H](CCC(=O)O)C(=O)N[C@@H](C)C(=O)N[C@@H](Cc1c[nH]cn1)C(=O)N[C@@H](Cc1ccccc1)C(=O)N[C@H](C(=O)N[C@@H](CC(=O)O)C(=O)O)[C@@H](C)O)[C@@H](C)CC [NS3 277-291] | – | 208 | 4610 | 402 | 2700 | 2600 | 4.4 | 68 | 7130 | 396 | – | 37 | 1530 | 1320 | – | – |
| CC[C@H](C)[C@H](NC(=O)[C@H](C)N)C(=O)N[C@@H](CCC(N)=O)C(=O)N[C@@H](CCC(N)=O)C(=O)N[C@H](C(=O)N[C@@H](CCCNC(=N)N)C(=O)N[C@@H](CO)C(=O)N[C@@H](CC(C)C)C(=O)N[C@H](C(=O)NCC(=O)N[C@@H](CC(N)=O)C(=O)N[C@@H](CCC(=O)O)C(=O)N[C@@H](CCC(=O)O)C(=O)N[C@@H](Cc1ccccc1)C(=O)N[C@@H](CC(C)C)C(=O)N[C@@H](CC(=O)O)C(=O)N[C@@H](Cc1ccc(O)cc1)C(=O)O)[C@@H](C)CC)C(C)C [NS5 866-882] | 12 | 2020 | 421 | – | – | – | 8090 | – | – | – | 4.3 | 178 | – | 148 | 66 | 543 |
